This is an account of results in patent publication US20090318385A1, “Pyrazolopyride derivative and phosphodiesterase ( pde) inhibitors containing the same as active ingredient” (priority 2006, published 2009).

Structures are written as SMILES.

The target in data set [1] is T1, PDE4B catalytic domain (Homo sapiens, UniProt Q07343).
T1 construct: The cDNA of PDE4B catalytic domain (hereinafter abbreviated as Cat) was isolated from human RNA by RT-PCR; made in house; host or cells: Sf9 insect cells (baculovirus, Bac-to-Bac)
Nature of the data set: Phosphodiesterase inhibitory activity (recombinant PDE4Bcat, [3H]cAMP). The data set is classed as biochemical. The following applies: 30° C. for 20 minutes, read-out: IC50 (μmol/L) PDE4. The source says: The cDNA of PDE4B catalytic domain (hereinafter abbreviated as Cat) was isolated from human RNA by RT-PCR. The isolated cDNA fragments were inserted into Sf9 insect cells using Gateway system (product of Invitrogen Corporation) and Bac-to-Bac (registered trademark) Baculovirus Expression system (product of Invitrogen Corporation) to express a target PDE protein. The recombinant PDE4Bcat was purified from the culture supernatants or cell extracts of Sf9 cells expressing high levels of the PDE protein by ion exchange chromatography and was used for the following experiments.
A 4 mmol/L solution of each test compound was serially diluted four-fold with a 15% DMSO solution to prepare solutions with concentrations of 15 nmol/L to 4 mmol/L (the final concentrations used in the experiments were 1.5 nmol/L to 400 μmol/L). 10 μL of the prepared test compound solutions, [^3H] cAMP diluted with a buffer solution (40 mmol/L Tris-HCl (pH: 7.4), 10 mmol/L MgCl2), and 40 μL of the recombinant human PDE protein (2×10^−6 units, 1 unit is defined as the amount of PDE that breaks down 1 μmol/L of cAMP in one minute under the conditions of a pH of 7.5 and 30° C.) were added to a 96-well plate. The mixtures were reacted at 30° C. for 20 minutes. Then, the resultant mixtures were reacted at 65° C. for 2 minutes. Subsequently, […] of 1 mg/mL 5′-nucleotidase (Crotalusatrox venom, product of Sigma) was added to the mixtures, and the mixtures were reacted at 30° C. for 10 minutes. After completion of the reaction, 200 μL of a solution of Dowex (300 mg/mL Dowex 1x8-400 (product of Sigma Aldrich), 33% ethanol) was added to the mixtures, and the mixtures were shaken at 4° C. for 20 minutes. Subsequently, 200 μL of MicroScint 20 (product of Packard) was added to the mixtures, and measurement was performed using a scintillation counter (Topcount, product of Packard). IC50 values were calculated using Graph Pad Prism v3.03 (product of GraphPad Software). When 1 μmol/L>the IC50 value≧0.1 μmol/L, the results were represented by “+.” When 0.1 μmol/L>the IC50 value, the results were represented by “++.”

Data set [2] concerns histamine-induced bronchoconstriction. Nature of the data set: Histamine-induced airway contraction reaction in guinea pigs. The class given is in vivo. The following applies: test compound 1 mg/kg i.v., histamine 12.5 μg/kg i.v., airflow 30 seconds after administration. How it is done:
Guinea pigs were anesthetized with pentobarbital (30 mg/kg, i.p.). A cannula for intravenous administration, a cannula for collecting blood and measuring blood pressure, and a tracheal cannula were inserted into the left external jugular vein, right internal carotid artery, and trachea, respectively. The guinea pigs were maintained on artificial respiration under the conditions of 60 times/min and 10 mL/kg/stroke. The airflow from the side branch of the tracheal cannula was measured by a bronchospasm transducer (Ugo-Basile) and recorded on a computer via Power Lab (ADInstruments Japan). The guinea pigs were immobilized with gallamine (10 mg/kg, i.v.), and histamine was administered at 10-minute intervals (12.5 μg/kg, i.v.). After the histamine-induced bronchoconstriction was constant, one of the test compounds (1 mg/kg, i.v.) dissolved in DMSO was administered. We examined the inhibitory action of test compounds on histamine-induced bronchoconstriction 30 seconds after compounds administration. Bronchoconstriction was recorded as the value of airflow, and the results were represented by the ratio of the maximum value of the histamine-induced airflow 30 seconds after the administration to the maximum value of the airflow before the administration. When the inhibition ratio≧90%, the results were represented by “+++.” When 90%>the inhibition ratio≧70%, the results were represented by “++.” When 70%>the inhibition ratio≧30%, the results were represented by “+.”

Data set [3] relates to total number of leukocytes in bronchoalveolar lavage fluid after LPS inhalation. The data set is described as follows: LPS acute inflammation model in rats. As to conditions: Rattus norvegicus, Leukocyte, po, 3 mg/kg orally one hour before LPS inhalation, total leukocytes in BALF 3 hours after LPS inhalation, read-out: Inhibition ratio. The class given is in vivo. How it is done:
3 mg/kg of the compounds were orally administered to rats one hour before inhalation of lipopolysaccharide (LPS) from E. coli serotype 055:B5, rats were inhalted nebulizing LPS solution (50 mL) by nebulizer for 30 minutes. Then, 3 hours after the LPS inhalation, rats were euthanized with 20% urethane (5 ml/rat, i.p.) 5 ml of physiological saline for bronchoalveolar lavage was injected into the bronchoalveolar space through the airway, and the bronchoalveolar space was washed 3 times using a 5 mL syringe. This procedure was repeated twice, and the solution was collected as bronchoalveolar lavage fluid (BALF). The collected BALF was centrifuged at 1,200 rpm and 4° C. for 10 minutes (Hirtachi; himac CR 5 DL). The sediment was re-suspended in 10 mL of a 0.1% bovine serum albumin-physiological saline, and an equivalent amount of Turk's solution was added to the suspension to stain leukocytes. The total number of leukocytes was counted under a microscope to determine the inhibition ratio. When the inhibition ratio≧60%, the results were represented by “++.” When 60%>the inhibition ratio≧30%, the results were represented by “+.”

T1 sequence (Q07343 330-659 limits assumed): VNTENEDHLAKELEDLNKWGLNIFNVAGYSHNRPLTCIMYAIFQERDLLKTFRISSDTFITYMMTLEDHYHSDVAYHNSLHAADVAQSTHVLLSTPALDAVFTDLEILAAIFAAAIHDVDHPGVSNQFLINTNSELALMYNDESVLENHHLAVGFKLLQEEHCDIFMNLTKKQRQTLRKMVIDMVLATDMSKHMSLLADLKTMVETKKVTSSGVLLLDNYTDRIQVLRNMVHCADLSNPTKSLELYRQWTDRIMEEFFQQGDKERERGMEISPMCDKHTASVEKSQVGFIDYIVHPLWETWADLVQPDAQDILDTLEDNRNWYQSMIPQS

For the molecule `COc1ccc(C(=O)Cc2ccncc2)c2cc(C(F)(F)F)nn12` [80 (90), 1-(7-Methoxy-2-trifluoromethylpyrazolo[1,5-a]pyridin-4-yl)-2-(pyridin-4-yl)ethanone], the IC50 in data set [1] is < 0.1 µmol/L. The Inhibition ratio entry in data set [2] is “+++ (When the inhibition ratio≧90%, the results were represented by “+++.”)”.
For `COc1ccc(/C(=C/c2ccncc2)c2ccccc2)c2cc(C(F)(F)F)nn12` [Example 84, (E)-7-methoxy-4-[1-phenyl-2-(pyridin-4-yl)vinyl]-2-trifluoromethylpyrazolo[1,5-a]pyridine], in data set [1], the IC50 is < 0.1 µmol/L.
Consider `COc1ccc(C(Cc2ccncc2)c2ccccc2)c2cc(C(F)(F)F)nn12` (centres unmarked) [Example 86, 7-Methoxy-4-[1-phenyl-2-(pyridin-4-yl)ethyl]-2-trifluoromethylpyrazolo[1,5-a]pyridine], for which the IC50 in data set [1] is < 0.1 µmol/L.
On to `COc1ccc(C(O)Cc2c(Cl)cncc2Cl)c2cc(C(F)(F)F)nn12` (centres unmarked) [Example 87, 2-(3,5-Dichloropyridin-4-yl)-1-(7-methoxy-2-trifluoromethylpyrazolo[1,5-a]pyridin-4-yl)ethanol], for which, in data set [1], the IC50 was < 0.1 µmol/L.
Turning to `COc1ccc(CCc2cc[n+]([O-])cc2)c2cc(C(F)(F)F)nn12` [Example 91, 4-(2-(7-Methoxy-2-(trifluoromethyl)pyrazolo[1,5-a]pyridin-4-yl)ethyl)pyridine 1-oxide], the IC50 in data set [1] was < 0.1 µmol/L. Besides, the inhibition in vivo at 3 mg/kg in data set [3] was ≥ 60%.
For the molecule `COc1ccc(C(=O)Cc2c(Cl)c[n+]([O-])cc2Cl)c2cc(C(F)(F)F)nn12` [Example 92, 3,5-Dichloro-4-(2-(7-methoxy-2-(trifluoromethyl)pyrazolo[1,5-a]pyridin-4-yl)-2-oxoethyl)pyridine 1-oxide], the IC50 in data set [1] is < 0.1 µmol/L. Also, the inhibition in vivo at 3 mg/kg in data set [3] was ≥ 60%.
As a reminder, the melting point is the temperature of the solid-liquid transition. On to `COc1ccc(C(=O)Cc2cc[n+]([O-])cc2)c2cc(C(F)(F)F)nn12` [Example 93, 4-(2-(7-Methoxy-2-(trifluoromethyl)pyrazolo[1,5-a]pyridin-4-yl)-2-oxoethyl)pyridine 1-oxide], for which the melting point was 157 to 161 °C (dec.). For the same molecule, in data set [1], the IC50 was < 0.1 µmol/L. Also, the inhibition in vivo at 3 mg/kg in data set [3] is ≥ 60%.
Turning to `COc1ccc(CCc2c(Cl)cncc2Cl)c2cc(C(F)(F)F)nn12` [Example 95, 4-(2-(3,5-Dichloropyridin-4-yl)ethyl)-7-methoxy-2-(trifluoromethyl)pyrazolo[1,5-a]pyridine], the melting point was 158 to 160 °C (dec.).
Same read-out and setting: for `COc1ccc(C(=O)Cc2ccncc2Cl)c2cc(C(F)(F)F)nn12` [Example 97, 2-(3-Chloropyridin-4-yl)-1-(7-methoxy-2-(trifluoromethyl)pyrazolo[1,5-a]pyridin-4-yl)ethanone] the value was 188 to 191 °C.
Consider `CNc1ccc(C(=O)Cc2c(Cl)cncc2Cl)c2cc(C(F)(F)F)nn12` [Example 99, 2-(3,5-Dichloropyridin-4-yl)-1-(7-(methylamino)-2-(trifluoromethyl)pyrazolo[1,5-a]pyridin-4-yl)ethanone], for which the melting point is 220 to 223 °C. The IC50 in data set [1] was < 0.1 µmol/L.
In turn, `CN(C)c1ccc(C(=O)Cc2c(Cl)cncc2Cl)c2cc(C(F)(F)F)nn12` [Example 100, 2-(3,5-Dichloropyridin-4-yl)-1-(7-(dimethylamino)-2-(trifluoromethyl)pyrazolo[1,5-a]pyridin-4-yl)ethanone] gave a melting point of 234 to 238 °C.
For the molecule `COc1ccc(CCc2c(Cl)cncc2Cl)c2cc(C(F)F)nn12` [Example 102, 4-(2-(3,5-Dichloropyridin-4-yl)ethyl)-2-(difluoromethyl)-7-methoxypyrazolo[1,5-a]pyridine], the melting point lay within 153 to 156 °C.
In turn, `COc1ccc(CCc2ccncc2)c2cc(C(F)F)nn12` [Example 104, 2-(Difluoromethyl)-7-methoxy-4-(2-(pyridin-4-yl)ethyl)pyrazolo[1,5-a]pyridine] came in with a melting point of 121 to 123 °C.
Still for that read-out and setting: the same measure for `COc1ccc(C(=O)Cc2c(Cl)cncc2Cl)c2cc(C(F)F)nn12` [Example 107, 2-(3,5-dichloropyridin-4-yl)-1-(2-(difluoromethyl)-7-methoxypyrazolo[1,5-a]pyridin-4-yl)ethanone]: 208 to 211 °C (dec.).
Turning to `COc1ccc(C(=O)Cc2c(Cl)c[n+]([O-])cc2Cl)c2cc(C(F)F)nn12` [Example 108, 3,5-Dichloro-4-(2-(2-(difluoromethyl)-7-methoxypyrazolo[1,5-a]pyridin-4-yl)-2-oxoethyl)pyridine 1-oxide], the IC50 in data set [1] is < 0.1 µmol/L. For the same molecule, the inhibition in vivo at 3 mg/kg in data set [3] was ≥ 60%.
Regarding `COc1ccc(C(=O)Cc2ccncc2)c2cc(C(F)F)nn12` [Example 109, 1-(2-(Difluoromethyl)-7-methoxypyrazolo[1,5-a]pyridin-4-yl)-2-(pyridin-4-yl)ethanone], the melting point was 186 to 191 °C (dec.).
The same measure, in the same setting: the same measure for `COc1ccc(C(=O)Cc2ccncc2Cl)c2cc(C(F)F)nn12` [Example 111, 2-(3-Chloropyridin-4-yl)-1-(2-(difluoromethyl)-7-methoxypyrazolo[1,5-a]pyridin-4-yl)ethanone]: 191 to 194 °C (dec.).
Take `COc1ccc(C(=O)Cc2ccncc2)c2cc(C3CC3)nn12` [Example 121, 1-(2-Cyclopropyl-7-methoxypyrazolo[1,5-a]pyridin-4-yl)-2-(pyridin-4-yl)ethanone]: in data set [1], the IC50 is < 0.1 µmol/L. In data set [3], the inhibition in vivo at 3 mg/kg is ≥ 60%.
In the same order, the values of `COc1ccc(C(=O)Cc2c(Cl)cncc2Cl)c2c(Cl)c(C3CC3)nn12` [Example 122, 1-(3-Chloro-2-cyclopropyl-7-methoxypyrazolo[1,5-a]pyridin-4-yl)-2-(3,5-dichloropyridin-4-yl)ethanone] are < 0.1 µmol/L and ≥ 60%.
In turn, `CNc1ccc(C(=O)Cc2c(Cl)cncc2Cl)c2cc(C3CC3)nn12` [Example 123, 1-(2-Cyclopropyl-7-(methylamino)pyrazolo[1,5-a]pyridin-4-yl)-2-(3,5-dichloropyridin-4-yl)ethanone] gave a melting point of 196 to 200 °C.
On the same count and under the same terms, for `CN(C)c1ccc(C(=O)Cc2c(Cl)cncc2Cl)c2cc(C3CC3)nn12` [Example 124, 1-(2-Cyclopropyl-7-(dimethylamino)pyrazolo[1,5-a]pyridin-4-yl)-2-(3,5-dichloropyridin-4-yl)ethanone] the value was 216 to 220 °C.
As for `COc1ccc(C(=O)Cc2c(Cl)c[n+]([O-])cc2Cl)c2cc(C#N)nn12` [Example 142, 3,5-Dichloro-4-(2-(2-cyano-7-methoxypyrazolo[1,5-a]pyridin-4-yl)-2-oxoethyl)pyridine 1-oxide], the IC50 in data set [1] was < 0.1 µmol/L. The inhibition in vivo at 3 mg/kg in data set [3] was ≥ 60%.
